In BigSolDB 2.1:

Nc1cccc(Cl)c1C(=O)O
solubility (mole fraction)
Conditions	278.15 K	283.15 K	288.15 K	293.15 K	298.15 K	303.15 K	308.15 K	313.15 K	318.15 K	323.15 K
in NMP	0.0744	0.0797	0.0873	0.0958	0.106	0.119	0.135	0.155	0.178	0.204
in acetonitrile	0.00746	0.00991	0.0129	0.0166	0.0208	0.0259	0.0313	0.0377	0.045	0.0541
in cyclohexane	–	4.1e-05	6e-05	8.7e-05	0.000115	0.000155	0.000205	0.000269	0.000344	0.000445
in ethanol	0.0284	0.0346	0.0408	0.049	0.0584	0.0702	0.0831	0.1	0.119	0.141
in ethyl acetate	0.0257	0.0303	0.036	0.0423	0.051	0.0612	0.0731	0.0867	0.103	0.122
in ethylene glycol	0.0133	0.0175	0.0225	0.0283	0.0349	0.0423	0.0505	0.0601	0.071	0.0848
in isobutanol	0.0106	0.0145	0.0189	0.0244	0.0308	0.0385	0.047	0.057	0.0677	0.0809
in isopropanol	0.0195	0.0231	0.0276	0.0332	0.0399	0.0479	0.0571	0.0676	0.0819	0.0982
in n-butanol	0.0172	0.0208	0.0248	0.03	0.0365	0.0439	0.053	0.0642	0.0786	0.0958
in n-heptanol	0.00987	0.0135	0.0177	0.0225	0.0276	0.0338	0.0414	0.0507	0.0625	0.0776
in n-octanol	0.00855	0.0118	0.0154	0.0194	0.0241	0.0301	0.0376	0.0476	0.0606	0.0753
in n-propanol	0.0203	0.0248	0.0299	0.0353	0.0416	0.0498	0.0592	0.0718	0.0859	0.103
in toluene	0.00446	0.00515	0.00616	0.0075	0.00924	0.0112	0.0133	0.0156	0.0179	0.0207
in water	0.000571	0.000674	0.000801	0.000965	0.00116	0.0014	0.00169	0.00203	0.00247	0.00297
